# Positions of bridges follow the written chain, without caps; N, C: chain ends. Non-standard residues stand in square brackets, D forms with d. Residues, ends and D or L forms follow the SMILES beside them. *: point of attachment. X1 = O=C(O)c1cc(NC(=S)*)ccc1-c1c2ccc(=O)cc-2oc2cc(O)ccc12; Phe(3,4-Cl2) = N[C@@H](Cc1ccc(Cl)c(Cl)c1)C(=O)O; R5 = C=CCCC[C@@](C)(N)C(=O)O
# Molecular target: T1, Replication protein A 70 kDa DNA-binding subunit (Homo sapiens, UniProt P27694)
# Test: Binding affinity to recombinant human RPA70 A/B region (181 to 422 amino acids) expressed in Escherichia coli Rosetta by fluorescence polarization anisotropy assay; call rule not given here
# T1 sequence (P27694 whole entry, the tested form may be a part): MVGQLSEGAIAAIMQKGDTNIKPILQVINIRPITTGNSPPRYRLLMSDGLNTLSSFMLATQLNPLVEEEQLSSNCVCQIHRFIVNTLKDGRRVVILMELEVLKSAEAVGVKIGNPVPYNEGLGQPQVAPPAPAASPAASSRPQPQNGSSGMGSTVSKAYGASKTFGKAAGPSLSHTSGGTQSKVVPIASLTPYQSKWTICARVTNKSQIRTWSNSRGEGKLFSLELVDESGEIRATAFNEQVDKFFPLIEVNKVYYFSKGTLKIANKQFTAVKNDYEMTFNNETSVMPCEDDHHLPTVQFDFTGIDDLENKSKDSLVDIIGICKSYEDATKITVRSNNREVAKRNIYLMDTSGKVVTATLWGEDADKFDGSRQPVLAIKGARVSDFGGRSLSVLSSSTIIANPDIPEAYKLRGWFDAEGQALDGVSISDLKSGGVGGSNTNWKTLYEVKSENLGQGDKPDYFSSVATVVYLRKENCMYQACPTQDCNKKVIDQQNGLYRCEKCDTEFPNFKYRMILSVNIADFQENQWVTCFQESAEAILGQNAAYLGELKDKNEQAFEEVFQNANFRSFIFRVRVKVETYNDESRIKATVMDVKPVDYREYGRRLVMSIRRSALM
row,Compound,Kd [µM]
1,CC(C)C[C@H](NC(=O)[C@H](C)NC(=O)[C@H](Cc1ccccc1)NC(=O)[C@H](Cc1c[nH]c2ccccc12)NC(=O)[C@@]1(C)CCC/C=C\CCC[C@@](C)(NC(=O)[C@H](C)NC(=O)[C@@H](NC(=O)[C@H](Cc2ccccc2)NC(=O)[C@H](CC(N)=O)NC(=S)Nc2ccc(-c3c4ccc(=O)cc-4oc4cc(O)ccc34)c(C(=O)O)c2)[C@@H](C)O)C(=O)N[C@@H](CC(N)=O)C(=O)N[C@@H](CC(C)C)C(=O)N[C@@H](CCC(=O)O)C(=O)N1)C(=O)O (X1-NFTA[R5]NLE[R5]WFAL-OH; staple (Z) 5-9),12

# Molecular target: not listed separately
# Test: Binding affinity to recombinant human RPA70C/32D/14 by fluorescence polarization anisotropy assay
row,Compound,Kd [µM]
1,CC(C)C[C@H](NC(=O)[C@H](C)NC(=O)[C@H](Cc1ccccc1)NC(=O)[C@H](Cc1c[nH]c2ccccc12)NC(=O)[C@@]1(C)CCC/C=C\CCC[C@@](C)(NC(=O)[C@H](C)NC(=O)[C@@H](NC(=O)[C@H](Cc2ccccc2)NC(=O)[C@H](CC(N)=O)NC(=S)Nc2ccc(-c3c4ccc(=O)cc-4oc4cc(O)ccc34)c(C(=O)O)c2)[C@@H](C)O)C(=O)N[C@@H](CC(N)=O)C(=O)N[C@@H](CC(C)C)C(=O)N[C@@H](CCC(=O)O)C(=O)N1)C(=O)O (X1-NFTA[R5]NLE[R5]WFAL-OH; staple (Z) 5-9),12

# System: U2OS
# Test: Cellular uptake in human U2OS cells after 24 hrs by confocal microscopy
# Type: ADME, cell-based
row,Compound,Drug uptake
1,CC(C)C[C@H](NC(=O)[C@H](C)NC(=O)[C@H](Cc1ccccc1)NC(=O)[C@H](Cc1c[nH]c2ccccc12)NC(=O)[C@@]1(C)CCC/C=C\CCC[C@@](C)(NC(=O)[C@H](C)NC(=O)[C@@H](NC(=O)[C@H](Cc2ccccc2)NC(=O)[C@H](CC(=O)O)NC(=S)Nc2ccc(-c3c4ccc(=O)cc-4oc4cc(O)ccc34)c(C(=O)O)c2)[C@@H](C)O)C(=O)N[C@@H](CC(=O)O)C(=O)N[C@@H](CC(C)C)C(=O)N[C@@H](CCC(=O)O)C(=O)N1)C(=O)O (X1-DFTA[R5]DLE[R5]WFAL-OH; staple (Z) 5-9),Not Active
2,CC(C)C[C@H](NC(=O)[C@H](C)NC(=O)[C@H](Cc1ccccc1)NC(=O)[C@H](Cc1c[nH]c2ccccc12)NC(=O)[C@@]1(C)CCC/C=C\CCC[C@@](C)(NC(=O)[C@H](C)NC(=O)[C@@H](NC(=O)[C@H](Cc2ccccc2)NC(=O)[C@H](CC(N)=O)NC(=S)Nc2ccc(-c3c4ccc(=O)cc-4oc4cc(O)ccc34)c(C(=O)O)c2)[C@@H](C)O)C(=O)N[C@@H](CC(N)=O)C(=O)N[C@@H](CC(C)C)C(=O)N[C@@H](CCC(=O)O)C(=O)N1)C(=O)O (X1-NFTA[R5]NLE[R5]WFAL-OH; staple (Z) 5-9),Active
3,CC(C)C[C@H](NC(=O)[C@H](C)NC(=O)[C@H](Cc1ccccc1)NC(=O)[C@H](Cc1c[nH]c2ccccc12)NC(=O)[C@@]1(C)CCC/C=C\CCC[C@@](C)(NC(=O)[C@H](C)NC(=O)[C@@H](NC(=O)[C@H](Cc2ccccc2)NC(=O)[C@H](CC(=O)O)NC(=S)Nc2ccc(-c3c4ccc(=O)cc-4oc4cc(O)ccc34)c(C(=O)O)c2)[C@@H](C)O)C(=O)N[C@@H](CC(N)=O)C(=O)N[C@@H](CC(C)C)C(=O)N[C@@H](CCC(=O)O)C(=O)N1)C(=O)O (X1-DFTA[R5]NLE[R5]WFAL-OH; staple (Z) 5-9),Active

# Molecular target: T1, Replication protein A 70 kDa DNA-binding subunit
row,Kd [µM],Compound
1,31,Ac-DFTAADLEELDTLAS-NH2
2,225,Ac-DFTADALEELDTLAS-NH2
3,6.4,CC(C)C[C@H](NC(=O)[C@H](CC(=O)O)NC(=O)[C@H](CC(=O)O)NC(=O)[C@H](C)NC(=O)[C@@H](NC(=O)[C@H](Cc1ccccc1)NC(=O)[C@H](CC(=O)O)NC(=S)Nc1ccc(-c2c3ccc(=O)cc-3oc3cc(O)ccc23)c(C(=O)O)c1)[C@@H](C)O)C(=O)N[C@@H](CCC(=O)O)C(=O)N[C@@H](CCC(=O)O)C(=O)N[C@@H](CC(C)C)C(=O)N[C@@H](CC(=O)O)C(=O)N[C@H](C(=O)N[C@@H](CC(C)C)C(=O)N[C@@H](C)C(=O)N[C@@H](CO)C(N)=O)[C@@H](C)O (X1-DFTADDLEELDTLAS-NH2)
4,43,Ac-DFTADDLAEWFTLAS-NH2
5,167,Ac-DFTADDLEALDTLAS-NH2
6,22,Ac-DFTADDLEELFTLAS-NH2
7,20,Ac-DFTADDLAELDALAS-NH2
8,197,Ac-DFTADDLEEADTLAS-NH2
9,63,Ac-DFTADDLEELDTAAS-NH2
10,172,Ac-DFTADDAEELDTLAS-NH2
11,0.58,CC(C)C[C@H](NC(=O)[C@H](C)NC(=O)[C@H](Cc1ccccc1)NC(=O)[C@H](Cc1c[nH]c2ccccc12)NC(=O)[C@H](CCC(=O)O)NC(=O)[C@H](CCC(=O)O)NC(=O)[C@H](CC(C)C)NC(=O)[C@H](CC(=O)O)NC(=O)[C@H](CC(=O)O)NC(=O)[C@H](C)NC(=O)[C@@H](NC(=O)[C@H](Cc1ccccc1)NC(=O)[C@H](CC(=O)O)NC(=S)Nc1ccc(-c2c3ccc(=O)cc-3oc3cc(O)ccc23)c(C(=O)O)c1)[C@@H](C)O)C(=O)N[C@@H](C)C(N)=O (X1-DFTADDLEEWFALA-NH2)
12,26,Ac-DFTADDLEELDTLAA-NH2
13,152,Ac-DFAADDLEELDTLAS-NH2
14,17,Ac-DFTADDLEELDALAS-NH2
15,22,Ac-DFTADDLAELDTLAS-OH
16,0.33,CC(C)C[C@H](NC(=O)[C@H](C)NC(=O)[C@H](Cc1ccccc1)NC(=O)[C@H](Cc1c[nH]c2ccccc12)NC(=O)[C@H](CCC(=O)O)NC(=O)[C@H](CCC(=O)O)NC(=O)[C@H](CC(C)C)NC(=O)[C@H](CC(=O)O)NC(=O)[C@H](CC(=O)O)NC(=O)[C@H](C)NC(=O)[C@@H](NC(=O)[C@H](Cc1ccccc1)NC(=O)[C@H](CC(=O)O)NC(=S)Nc1ccc(-c2c3ccc(=O)cc-3oc3cc(O)ccc23)c(C(=O)O)c1)[C@@H](C)O)C(N)=O (X1-DFTADDLEEWFAL-NH2)
17,2.7,Ac-DFTADDLEEWFTLAS-NH2
18,21,CC(C)C[C@H](NC(=O)[C@H](C)NC(=O)[C@H](Cc1ccccc1)NC(=O)[C@H](Cc1c[nH]c2ccccc12)NC(=O)[C@H](C)NC(=O)[C@H](CCC(=O)O)NC(=O)[C@H](CC(C)C)NC(=O)[C@H](CC(N)=O)NC(=O)[C@H](C)NC(=O)[C@H](C)NC(=O)[C@@H](NC(=O)[C@H](Cc1ccccc1)NC(=O)[C@H](CC(N)=O)NC(=S)Nc1ccc(-c2c3ccc(=O)cc-3oc3cc(O)ccc23)c(C(=O)O)c1)[C@@H](C)O)C(=O)N[C@@H](C)C(=O)N[C@@H](CO)C(N)=O (X1-NFTAANLEAWFALAS-NH2)
19,0.91,CC(C)C[C@H](NC(=O)[C@H](CC(=O)O)NC(=O)[C@H](CC(=O)O)NC(=O)[C@H](C)NC(=O)[C@@H](NC(=O)[C@H](Cc1ccccc1)NC(=O)[C@H](CC(=O)O)NC(=S)Nc1ccc(-c2c3ccc(=O)cc-3oc3cc(O)ccc23)c(C(=O)O)c1)[C@@H](C)O)C(=O)N[C@@H](CCC(=O)O)C(=O)N[C@@H](CCC(=O)O)C(=O)N[C@@H](Cc1c[nH]c2ccccc12)C(=O)N[C@@H](Cc1ccccc1)C(=O)N[C@@H](C)C(N)=O (X1-DFTADDLEEWFA-NH2)
20,138,Ac-DFTADDLEEWDTLAS-NH2
21,85,Ac-DFTADDLEELATLAS-NH2

# The next lines start with the compound.
row,Compound,Kd [µM]
1,Ac-DFTADNLEEWFALAS-NH2,6.9
2,CC(C)C[C@H](NC(=O)[C@H](C)NC(=O)[C@H](Cc1ccccc1)NC(=O)[C@H](Cc1c[nH]c2ccccc12)NC(=O)[C@@]1(C)CCC/C=C\CCC[C@@](C)(NC(=O)[C@H](C)NC(=O)[C@@H](NC(=O)[C@H](Cc2ccccc2)NC(=O)[C@H](CC(=O)O)NC(=S)Nc2ccc(-c3c4ccc(=O)cc-4oc4cc(O)ccc34)c(C(=O)O)c2)[C@@H](C)O)C(=O)N[C@@H](CC(=O)O)C(=O)N[C@@H](CC(C)C)C(=O)N[C@@H](CCC(=O)O)C(=O)N1)C(=O)O (X1-DFTA[R5]DLE[R5]WFAL-OH; staple (Z) 5-9),0.57
3,CC(C)C[C@H](NC(=O)[C@H](C)NC(=O)[C@H](Cc1ccccc1)NC(=O)[C@H](Cc1c[nH]c2ccccc12)NC(=O)[C@@]1(C)CCC/C=C\CCC[C@@](C)(NC(=O)[C@H](C)NC(=O)[C@@H](NC(=O)[C@H](Cc2ccccc2)NC(=O)[C@H](CC(N)=O)NC(=S)Nc2ccc(-c3c4ccc(=O)cc-4oc4cc(O)ccc34)c(C(=O)O)c2)[C@@H](C)O)C(=O)N[C@@H](CC(=O)O)C(=O)N[C@@H](CC(C)C)C(=O)N[C@@H](CCC(=O)O)C(=O)N1)C(=O)O (X1-NFTA[R5]DLE[R5]WFAL-OH; staple (Z) 5-9),1.5
4,Ac-DFTADDLEQWFALAS-NH2,2.6
5,Ac-NFTADDLEEWFALAS-NH2,5.8
6,Ac-DFTADDLAEWFALAS-NH2,28
7,Ac-DFTADALEEWFALAS-NH2,28
8,CC(C)C[C@H](NC(=O)[C@H](C)NC(=O)[C@H](Cc1ccccc1)NC(=O)[C@H](Cc1c[nH]c2ccccc12)NC(=O)[C@@]1(C)CCC/C=C\CCC[C@@](C)(NC(=O)[C@H](C)NC(=O)[C@@H](NC(=O)[C@H](Cc2ccccc2)NC(=O)[C@H](CC(N)=O)NC(=S)Nc2ccc(-c3c4ccc(=O)cc-4oc4cc(O)ccc34)c(C(=O)O)c2)[C@@H](C)O)C(=O)N[C@@H](CC(N)=O)C(=O)N[C@@H](CC(C)C)C(=O)N[C@@H](CCC(=O)O)C(=O)N1)C(=O)O (X1-NFTA[R5]NLE[R5]WFAL-OH; staple (Z) 5-9),7.4
9,"CC(C)C[C@H](NC(=O)[C@H](C)NC(=O)[C@H](Cc1ccc(Cl)c(Cl)c1)NC(=O)[C@H](Cc1c[nH]c2ccccc12)NC(=O)[C@H](CCC(=O)O)NC(=O)[C@H](CCC(=O)O)NC(=O)[C@H](CC(C)C)NC(=O)[C@H](CC(=O)O)NC(=O)[C@H](CC(=O)O)NC(=O)[C@H](C)NC(=O)[C@@H](NC(=O)[C@H](Cc1ccccc1)NC(=O)[C@H](CC(=O)O)NC(=S)Nc1ccc(-c2c3ccc(=O)cc-3oc3cc(O)ccc23)c(C(=O)O)c1)[C@@H](C)O)C(N)=O (X1-DFTADDLEEW[Phe(3,4-Cl2)]AL-NH2)",0.022
10,Ac-DFTADDLEAWFALAS-NH2,2.4
11,Ac-DFTADDLEEWFALAS-NH2,1.2
12,CC(C)C[C@H](NC(=O)[C@H](C)NC(=O)[C@H](Cc1ccccc1)NC(=O)[C@H](Cc1c[nH]c2ccccc12)NC(=O)[C@@]1(C)CCC/C=C\CCC[C@@](C)(NC(=O)[C@H](C)NC(=O)[C@@H](NC(=O)[C@H](Cc2ccccc2)NC(=O)[C@H](CC(=O)O)NC(=S)Nc2ccc(-c3c4ccc(=O)cc-4oc4cc(O)ccc34)c(C(=O)O)c2)[C@@H](C)O)C(=O)N[C@@H](CC(N)=O)C(=O)N[C@@H](CC(C)C)C(=O)N[C@@H](CCC(=O)O)C(=O)N1)C(=O)O (X1-DFTA[R5]NLE[R5]WFAL-OH; staple (Z) 5-9),3.7
13,"CC(C)C[C@H](NC(=O)[C@H](C)NC(=O)[C@H](Cc1ccc(Cl)c(Cl)c1)NC(=O)[C@H](Cc1c[nH]c2ccccc12)NC(=O)[C@@]1(C)CCC/C=C\CCC[C@@](C)(NC(=O)[C@H](C)NC(=O)[C@@H](NC(=O)[C@H](Cc2ccccc2)NC(=O)[C@H](CC(N)=O)NC(=S)Nc2ccc(-c3c4ccc(=O)cc-4oc4cc(O)ccc34)c(C(=O)O)c2)[C@@H](C)O)C(=O)N[C@@H](CC(=O)O)C(=O)N[C@@H](CC(C)C)C(=O)N[C@@H](CCC(=O)O)C(=O)N1)C(=O)O (X1-NFTA[R5]DLE[R5]W[Phe(3,4-Cl2)]AL-OH; staple (Z) 5-9)",0.048
14,Ac-DFTAADLEEWFALAS-NH2,2.3
15,Ac-DFTANDLEEWFALAS-NH2,19
16,Ac-AFTADDLEELDTLAS-NH2,152
